Assay results taken from patent US20230093861A1, “RAPAMYCIN ANALOGS AS MTOR INHIBITORS” (Revolution Medicines, Inc., priority 2017, published 2023).

How the values were obtained:
[1] = test system: P-Akt (S473); test: Cell based AlphaLISA assay, inhibition of P-Akt (S473) (mTORC2 substrate phosphorylation) in MDA-MB-468 cells; conditions: Homo sapiens, MDA-MB-468, 4 h, AlphaLISA, two to four hours at 37° C., read-out: pIC50 for Inhibition of mTORC1 and mTORC2 Substrate Phosphorylation, p-AKT 1/2/3 -(S473) (converted)
Outline: (§1)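 Readout is the Alpha signal for each phosphoprotein, measured in duplicate from cell lysates with a SureFire Ultra homogeneous assay. IC50 values derive from inhibitor concentration-response curves fitted by normalized regression against controls.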

[2] = test system: P-4E-BP1 (T37/46); test: Cell based AlphaLISA assay, inhibition of P-4E-BP1 (T37/46) (mTORC1 substrate phosphorylation) in MDA-MB-468 cells; conditions: Homo sapiens, MDA-MB-468, 4 h, AlphaLISA, two to four hours at 37° C., read-out: pIC50 for Inhibition of mTORC1 and mTORC2 Substrate Phosphorylation, P-4E-BP1-(T37/46) (converted)
Outline: as §1

[3] = test system: P-P70S6K (T389); test: Cell based AlphaLISA assay, inhibition of P-P70S6K (T389) (mTORC1 substrate phosphorylation) in MDA-MB-468 cells; conditions: Homo sapiens, 4 h, AlphaLISA, two to four hours at 37° C., read-out: pIC50 for Inhibition of mTORC1 and mTORC2 Substrate Phosphorylation, P-P70S6K-(T389) (converted)
Outline: as §1

Compound	IC50 [1] [nM]	IC50 [2] [nM]	IC50 [3] [nM]
CO[C@H]1C[C@@H]2CC[C@@H](C)[C@@](O)(O2)C(=O)C(=O)N2CCCC[C@H]2C(=O)O[C@H]([C@H](C)C[C@@H]2CC[C@H](n3cc(CCCC(=O)NCCOCCOCCOCCC(=O)NCCOCCOCCOCCC(=O)NCCCCn4nc(-c5cc6cc(O)ccc6[nH]5)c5c(N)ncnc54)nn3)[C@H](OC)C2)C/C(=N/OCc2ccccc2)[C@H](C)/C=C(\C)[C@@H](O)[C@@H](OC)C(=O)[C@H](C)C[C@H](C)/C=C/C=C/C=C/1C [Example 175]	> 1000	> 1000	> 1000
CO[C@H]1C[C@@H]2CC[C@@H](C)[C@@](O)(O2)C(=O)C(=O)N2CCCC[C@H]2C(=O)O[C@H]([C@H](C)C[C@@H]2CC[C@@H](OCc3cccc(-c4cnc(N5CCN(Cc6cn(CCOCCOCCOCCC(=O)NCCCCn7nc(-c8ccc9oc(N)nc9c8)c8c(N)ncnc87)nn6)CC5)nc4)c3)[C@H](OC)C2)CC(=O)[C@H](C)/C=C(\C)[C@@H](O)[C@@H](OC)C(=O)[C@H](C)C[C@H](C)/C=C/C=C/C=C/1C [Example 22]	3.16 to 31.6	< 3.16	< 1
CO[C@H]1C[C@@H]2CC[C@@H](C)[C@@](O)(O2)C(=O)C(=O)N2CCCC[C@H]2C(=O)O[C@H]([C@H](C)C[C@@H]2CC[C@H](n3cc(COC(=O)NCCOCCOCCOCCC(=O)NCCOCCOCCOCCC(=O)NCCCCn4nc(-c5cc6cc(O)ccc6[nH]5)c5c(N)ncnc54)nn3)[C@H](OC)C2)C[C@@H](OC)[C@H](C)/C=C(\C)[C@@H](O)[C@@H](OC)C(=O)[C@H](C)C[C@H](C)/C=C/C=C/C=C/1C [Example 146]	> 1000	> 1000	1 to 10
CO[C@H]1C[C@@H]2CC[C@@H](C)[C@@](O)(O2)C(=O)C(=O)N2CCCC[C@H]2C(=O)O[C@H]([C@H](C)C[C@@H]2CC[C@H](n3cc(-c4cccc(C(=O)NCCOCCOCCOCCC(=O)NCCOCCOCCOCCOCCC(=O)NCCCCn5nc(-c6ccc7oc(N)nc7c6)c6c(N)ncnc65)c4)nn3)[C@H](OC)C2)CC(=O)[C@H](C)/C=C(\C)[C@@H](O)[C@@H](OC)C(=O)[C@H](C)C[C@H](C)/C=C/C=C/C=C/1C [Example 139]	3.16 to 31.6	3.16 to 31.6	1 to 10
CO[C@H]1C[C@@H]2CC[C@@H](C)[C@@](O)(O2)C(=O)C(=O)N2CCCC[C@H]2C(=O)O[C@H]([C@H](C)C[C@@H]2CC[C@H](n3cc(CCCC(=O)NCCOCCOCCOCCC(=O)NCCOCCOCCOCCC(=O)NCCCCn4nc(-c5cc6cc(O)ccc6[nH]5)c5c(N)ncnc54)nn3)[C@H](OC)C2)C[C@@H](OC)[C@H](C)/C=C(\C)[C@@H](O)[C@@H](OC)C(=O)[C@H](C)C[C@H](C)/C=C/C=C/C=C/1C [Example 179]	> 1000	31.6 to 1000	1 to 10
CO[C@H]1C[C@@H]2CC[C@@H](C)[C@@](O)(O2)C(=O)C(=O)N2CCCC[C@H]2C(=O)O[C@H]([C@H](C)C[C@@H]2CC[C@H](n3cc(COC(=O)NCCOCCOCCOCCC(=O)NCCOCCOCCOCCC(=O)NCCCCn4nc(-c5cc6cc(O)ccc6[nH]5)c5c(N)ncnc54)nn3)[C@H](OC)C2)CC(=O)[C@H](C)/C=C(\C)[C@@H](O)[C@@H](OC)C(=O)[C@H](C)C[C@H](C)/C=C/C=C/C=C/1C [Example 123]	31.6 to 1000	3.16 to 31.6	1 to 10
CO[C@H]1C[C@@H]2CC[C@@H](C)[C@@](O)(O2)C(=O)C(=O)N2CCCC[C@H]2C(=O)O[C@H]([C@H](C)C[C@@H]2CC[C@H](n3cc(-c4cnc(N5CCN(c6ncc(C(=O)NCCOCCOCCOCCOCCOCCC(=O)NCCCCn7nc(-c8ccc9oc(N)nc9c8)c8c(N)ncnc87)cn6)CC5)nc4)nn3)[C@H](OC)C2)CC(=O)[C@H](C)/C=C(\C)[C@@H](O)[C@@H](OC)C(=O)[C@H](C)C[C@H](C)/C=C/C=C/C=C/1C [Example 118]	3.16 to 31.6	< 3.16	< 1
